Columns and labels:
Type in all cases: in vivo, SD rats
[1] = test system: animal model of cerebral hemorrhage; test: Evans blue staining of brain sections, collagenase-induced intracerebral hemorrhage (Example 2); conditions: SMTP-7 test solution as in example 1; 2% Evans blue into tail vein 1 hour before sacrifice, day 7; FIG. 3A-3D, 4, 5
Procedure: (§1) Eight to 10 week old male SD rats (250 to 300 g body weight) were kept under a 12-hour light/dark cycle and a temperature of 22°C ± 1°C. The rats were raised in plastic cages and given free access to water and feed. The number of rats used in each experiment was n = 4 unless otherwise indicated. Moreover, a component other than those listed in the injection solution was physiological saline.
(§2) The rats were anesthetized with isoflurane (1.5% isoflurane + 66% NO + 33% O2) and then injected with collagenase from clostridium histolyticum (type IV, made by Sigma-Aldrich) at a concentration of 0.25 U/µL at a position 3 mm lateral from the center of the brain, at bregma level in the anteroposterior direction and 5 mm behind the stria vascularis using a syringe to inject for 5 minutes at a rate of 0.2 µL/min, then the syringe needle was held at that position for 10 minutes, and then slowly withdrawn over another 10 minutes (0.5 mm per minute). […]
The same experiment as in example 1 was performed again. […] Micrographs of whole brains and 3 mm thick sections are illustrated in FIG. 3A to FIG. 3D, and the total area (mm^2) of Evans blue-stained region and staining density determined from the sections using Imaged are shown in FIG. 4 and FIG. 5. […] In FIG. 5, the vertical axis represents the concentration value of Evans blue expressed as absorbance at a wavelength of 620 nm.

[2] = test system: animal model of cerebral hemorrhage; test: Hematoma volume in brain sections, collagenase-induced intracerebral hemorrhage (Example 1); conditions: 2 mg/mL solution of SMTP-7 injected into the brain at 0.2 µL/min over 10 minutes, 24 hours after collagenase injection; brain sections on day 7; FIG. 1A-1C, FIG. 2
Procedure: as §1
as §2, with “minute). Note that care was taken to prevent backflow during injection. In the following description, the day of this collagenase injection is referred to as day 0. This collagenase injection causes an intracerebral hemorrhage and the formation of a hematoma.” for “minute).”
Moreover, the ratio of volume of hematoma to the volume of the entire brain was also measured using Imaged. […]

[3] = test system: animal model of cerebral hemorrhage; test: LAN cable walking test of motor function, collagenase-induced intracerebral hemorrhage (Example 5); conditions: SMTP-7 test solution as in example 1; observed for 60 seconds on LAN cable; FIG. 16
Procedure: as §1
as §2, with “minute). Note that care was taken to prevent backflow during injection. In the following description, the day of this collagenase injection is referred to as day 0. This collagenase injection causes an intracerebral hemorrhage and the formation of a hematoma.” for “minute).”
Collagenase injection and test solution injection were performed as in example 1, and the motor function of rats was evaluated by having the rats walk on a local area network (LAN) cable. […]

GFAP = test: Antibody staining of brain sections with anti-GFAP antibodies (Example 9); conditions: SMTP-7 test solution as in example 1; day 7; FIG. 25-27
Procedure: as §1
as §2, with “minute). Note that care was taken to prevent backflow during injection. In the following description, the day of this collagenase injection is referred to as day 0. This collagenase injection causes an intracerebral hemorrhage and the formation of a hematoma.” for “minute).”

[4] = test system: animal model of cerebral hemorrhage; test: Hematoxylin-eosin (HE) staining of brain sections, hematoma area (Example 6); conditions: SMTP-7 test solution as in example 1; sections on day 7 after collagenase injection; FIG. 17-18
Procedure: as §1
as §2, with “minute). Note that care was taken to prevent backflow during injection. In the following description, the day of this collagenase injection is referred to as day 0. This collagenase injection causes an intracerebral hemorrhage and the formation of a hematoma.” for “minute).”

[5] = test system: animal model of cerebral hemorrhage; test: Barnes maze test, collagenase-induced intracerebral hemorrhage (Example 4); conditions: SMTP-7 test solution as in example 1; day 7 to day 10 after collagenase injection; FIG. 11-15
Procedure: as §1
as §2, with “minute). Note that care was taken to prevent backflow during injection. In the following description, the day of this collagenase injection is referred to as day 0.” for “minute).”
Collagenase injection and test solution injection were performed as in example 1, and a Barnes maze test (Barnes maze test) was performed on day 7 after collagenase injection. […] The time it took to reach the escape box and the number of holes where the rats incorrectly stayed at were evaluated. […]

[6] = test system: cleaved caspase-3 (Asp175); test: Antibody staining of brain sections for cleaved caspase-3 (Example 8); conditions: SMTP-7 test solution as in example 1, cerebral cortex, day 7, FIG. 22-24
Procedure: as §1
as §2, with “minute). Note that care was taken to prevent backflow during injection. In the following description, the day of this collagenase injection is referred to as day 0. This collagenase injection causes an intracerebral hemorrhage and the formation of a hematoma.” for “minute).”

[7] = test system: animal model of cerebral hemorrhage; test: Small animal MRI (T2-weighted) of hematoma and edema, collagenase-induced intracerebral hemorrhage (Example 3); conditions: SMTP-7 test solution as in example 1
Procedure: as §1
as §2, with “minute). Note that care was taken to prevent backflow during injection. In the following description, the day of this collagenase injection is referred to as day 0.” for “minute).”
Collagenase injection and test solution injection were performed as in example 1, and rat brains were measured by small animal MRI on days 1 and 7 after collagenase injection (PharmaScan made by Bruker BioSpin). […] The volume of hematomas was measured based on these MRI measurements using Imaged. […]

Iba-1 = test: Antibody staining of brain sections with anti-Iba-1 antibodies (Example 10); conditions: SMTP-7 test solution as in example 1; day 7; FIG. 28-30
Procedure: as §1
as §2, with “minute). Note that care was taken to prevent backflow during injection. In the following description, the day of this collagenase injection is referred to as day 0. This collagenase injection causes an intracerebral hemorrhage and the formation of a hematoma.” for “minute).”

[8] = test system: animal model of cerebral hemorrhage; test: Luxol fast blue and Cresyl violet double staining, myelin density in white matter (Example 7); conditions: SMTP-7 test solution as in example 1; ipsilateral, contralateral and central sites; day 7; FIG. 19-21
Procedure: as §1
as §2, with “minute). Note that care was taken to prevent backflow during injection. In the following description, the day of this collagenase injection is referred to as day 0. This collagenase injection causes an intracerebral hemorrhage and the formation of a hematoma.” for “minute).”

**Q.** With CC(C)=CCC/C(C)=C/CC[C@]1(C)Oc2c(c(O)cc3c2CN(CCC[C@@H](C(=O)O)N2Cc4c(cc(O)c5c4O[C@@](C)(CC/C=C(\C)CCC=C(C)C)[C@@H](O)C5)C2=O)C3=O)C[C@@H]1O [SMTP-7] as the compound, how does the “hematoma: total area of Evans blue-stained region and staining density” value [1] read?
**A.** The value was “marked reduction in hematoma”.

**Q.** And the “ratio of volume of hematoma to the volume of the entire brain” value [2]?
**A.** The value was “marked reduction in hematoma”.

**Q.** What about the “motor ability: total score (0 to 10) in LAN cable walking test” value [3] of the same compound?
**A.** The value was “marked improvement in motor ability”.

**Q.** And the “neuron damage: immunostaining using antibodies against GFAP, number of immunopositive cells” value (GFAP)?
**A.** Its value is “significantly suppressed”.

**Q.** And the “area of the hematoma region identified by HE staining” value [4]?
**A.** Its value is “marked reduction in hematoma”.

**Q.** What about the “learning ability: time required to reach the escape box and number of incorrect holes” value [5] of the same compound?
**A.** Its value is “marked improvement in learning ability”.

**Q.** And the “number of cells expressing caspase-3 (immunopositive cells per 100 µm^2 of ROI), contralateral” value ([6]; contralateral to collagenase injection)?
**A.** The value was “markedly reduced”.

**Q.** What about the “number of cells expressing caspase-3 (immunopositive cells per 100 µm^2 of ROI), ipsilateral” value ([6]; ipsilateral to collagenase injection) of the same compound?
**A.** Its value is “markedly reduced”.

**Q.** And the “volume ratio of hematoma in the T2-weighted MRI image” value ([7]; MRI on days 1 and 7 after collagenase injection, FIG. 6-8)?
**A.** Its value is “marked reduction in both hematoma and edema”.

**Q.** And the “ratio of cerebral edema volume in brain volume (MRI)” value ([7]; day 7 after collagenase injection, FIG. 9-10)?
**A.** The value was “marked reduction in both hematoma and edema”.

**Q.** What about the “inflammation: immunostaining using antibodies against Iba-1, number of immunopositive cells” value (Iba-1) of the same compound?
**A.** Its value is “significantly suppressed”.

**Q.** And the “white matter lesions (demyelination): myelin density in white matter” value [8]?
**A.** Its value is “marked suppression of hematoma lesions”.
